Results from article PMC6220303 (EMBO Molecular Medicine, 2018).
Where “and” joins values, the source holds several entries; their conditions need not be identical. Equal entries are not always repeated.

Legend:
CSF Aβ40 = test: Human CSF Aβ40, Phase IIa study of 3-month duration; format: in vivo; conditions: for reduction in CSF Aβ40 concentrations: 3 months, mean ± SEM
Source text: All study participants underwent CSF sampling at baseline and at the end of treatment; in addition, we collected CSF at a number of intermediate time points (n = 2–7/time point).
CSF Aβ38, Aβ40, Aβ42, sAPPα, and sAPPβ were quantified in human CSF with 0.2% (v/v) Tween®‐20 using validated sandwich‐based multiplexed electrochemiluminescence methods (MesoScale Discovery, […], MD, USA). […]
Secondary • To assess the change from baseline of CSF Aβ concentrations (Aβ1-
Objectives 38; Aβ1-40; Aβ1-42) in healthy elderly subjects over 13 weeks

[1] = system: healthy participants ≥ 60 years; test: Adverse events after 3 months daily dosing (Appendix Table S8); format: in vivo, human
Description: For further details, see the Appendix Table S10 in Appendix and the accompanying clinical protocols synopsis (Appendix Table S11).
Randomized, double-blind, placebo-controlled, parallel-group study to assess the safety, Multiple-dose over 13-tolerability, pharmacokinetics ≥ 60 yrs 100 / 24 weeks (2, 10, 35 or 85 mg and pharmacodynamics of q.d. CNP520 vs. placebo) multiple oral doses of CNP520 in healthy elderly participants
Title A randomized, double-blind, placebo-controlled, parallel-group study to assess the safety, tolerability, pharmacokinetics and pharmacodynamics of multiple oral doses of CNP520 in healthy elderly subjects
Brief title Dose-ranging safety and tolerability study in subjects ≥60 years of age Sponsor and Clinical Novartis
Study type Interventional […]
rationale months to allow initiation future long-term efficacy trials in patients with Alzheimer’s disease (AD) or in subjects at risk of AD. In addition, data relevant for Pharmacokinetic/Pharmacodynamic modeling will be obtained in order to define the target dose in subsequent efficacy studies.
Primary Objective(s) To determine the safety and tolerability of multiple, once-daily oral doses of […]
Secondary • To assess the change from baseline of CSF Aβ concentrations (Aβ1-Objectives 38; Aβ1-40; Aβ1-42) in healthy elderly subjects over 13 weeks treatment with CNP520 as compared to placebo

## C[C@@]1(c2nc(NC(=O)c3ncc(C(F)(F)F)cc3Cl)ccc2F)CO[C@@](C)(C(F)(F)F)C(N)=N1 [CNP520]
CSF Aβ40; 2-mg daily dose
  reduction in CSF Aβ40 concentrations: 22.6 ± 2.1%
CSF Aβ40; 85-mg daily dose
  reduction in CSF Aβ40 concentrations: 90.7 ± 0.37%
CSF Aβ40; corrected for plasma protein binding, human plasma
  ED50(free): 3.3 nM
CSF Aβ40; human plasma, Phase IIa
  ED50: total plasma CNP520 concentration at fifty percent reduction of CSF Aβ40: 37.5 ± 2.9 ng/ml and 73.5 ± 5.8 nM
[1]; 2 mg daily, N = 25
  AE incidence: Blood and lymphatic system disorders: 0 (0.0) n (%)
  AE incidence: Ear and labyrinth disorders: 0 (0.0) n (%)
  AE incidence: Eye disorders: 2 (8.0) n (%)
  AE incidence: Gastrointestinal disorders: 7 (28.0) n (%)
  AE incidence: General disorders and administration site conditions: 1 (4.0) n (%)
  AE incidence: Immune system disorders: 0 (0.0) n (%)
  AE incidence: Infections and infestations: 3 (12.0) n (%)
  AE incidence: Injury, poisoning and procedural complications: 7 (28.0) n (%)
  AE incidence: Investigations: 2 (8.0) n (%)
  AE incidence: Metabolism and nutrition disorders: 1 (4.0) n (%)
  AE incidence: Neoplasms benign, malignant & unspecified (incl. cysts and polyps): 1 (4.0) n (%)
  AE incidence: Nervous system disorders: 13 (52.0) n (%)
  AE incidence: Psychiatric disorders: 1 (4.0) n (%)
  AE incidence: Renal and urinary disorders: 0 (0.0) n (%)
  AE incidence: Reproductive system and breast disorders: 0 (0.0) n (%)
  AE incidence: Respiratory, thoracic and mediastinal disorders: 6 (24.0) n (%)
  AE incidence: Skin and subcutaneous tissue disorders: 3 (12.0) n (%)
  AE incidence: Vascular disorders: 0 (0.0) n (%)
  Participants with at least one AE: 19 (76.0) n (%)
[1]; 10 mg daily, N = 25
  AE incidence: Blood and lymphatic system disorders: 0 (0.0) n (%)
  AE incidence: Ear and labyrinth disorders: 1 (4.0) n (%)
  AE incidence: Eye disorders: 5 (20.0) n (%)
  AE incidence: Gastrointestinal disorders: 9 (36.0) n (%)
  AE incidence: General disorders and administration site conditions: 2 (8.0) n (%)
  AE incidence: Immune system disorders: 0 (0.0) n (%)
  AE incidence: Infections and infestations: 10 (40.0) n (%)
  AE incidence: Injury, poisoning and procedural complications: 11 (44.0) n (%)
  AE incidence: Investigations: 0 (0.0) n (%)
  AE incidence: Metabolism and nutrition disorders: 1 (4.0) n (%)
  AE incidence: Neoplasms benign, malignant & unspecified (incl. cysts and polyps): 1 (4.0) n (%)
  AE incidence: Nervous system disorders: 10 (40.0) n (%)
  AE incidence: Psychiatric disorders: 2 (8.0) n (%)
  AE incidence: Renal and urinary disorders: 2 (8.0) n (%)
  AE incidence: Reproductive system and breast disorders: 2 (8.0) n (%)
  AE incidence: Respiratory, thoracic and mediastinal disorders: 6 (24.0) n (%)
  AE incidence: Skin and subcutaneous tissue disorders: 7 (28.0) n (%)
  AE incidence: Vascular disorders: 2 (8.0) n (%)
  Participants with at least one AE: 22 (88.0) n (%)
[1]; 35 mg daily, N = 26
  AE incidence: Blood and lymphatic system disorders: 1 (3.8) n (%)
  AE incidence: Ear and labyrinth disorders: 1 (3.8) n (%)
  AE incidence: Eye disorders: 0 (0.0) n (%)
  AE incidence: Gastrointestinal disorders: 9 (34.6) n (%)
  AE incidence: General disorders and administration site conditions: 4 (15.4) n (%)
  AE incidence: Immune system disorders: 0 (0.0) n (%)
  AE incidence: Infections and infestations: 6 (23.1) n (%)
  AE incidence: Injury, poisoning and procedural complications: 10 (38.5) n (%)
  AE incidence: Investigations: 1 (3.8) n (%)
  AE incidence: Metabolism and nutrition disorders: 0 (0.0) n (%)
